From patent US9045491B2, “Thienyl [3,2-D] pyrimidin-4-one compounds, preparation method, pharmaceutical compositions and use thereof” (SHANGHAI INSTITUTE OF MATERIA MEDICA, CHINESE ACADEMY OF …, priority 2011, dated 2015)
Values joined by “and” are separate entries in the source; they are usually repeats but may differ in a detail not shown here. Identical values can stand only once.

Experiment: Pharmacokinetics of DC291407 and metabolites in rats (LC-MS/MS)
Assay type: in vivo, Sprague-Dawley (SD) rats
Experimental: The concentration of metabolite M1 (4071001), metabolite M2 (407002) or metabolite M3 (407003) in plasma was determined by LC-MS/MS method after DC291407 was administrated to the rats through gavage and intravenous injection.
The LC/MS/MS used is triple quadruple LC/MS 6460 from Agilent.
Six healthy male Sprague-Dawley (SD) rats with the weight of 180-220 g were randomly divided into 2 groups. The rats in each group were administrated with the tested compound by gavage or intravenous injection, respectively.
The compound was dissolved in 6.7% DMSO/6.7% Tween/86.6% normal saline.
The rats fasted for 12 h and can drink water ad libitum. 2 h after dosing, the rats were provided with food all together. The time point for collecting blood samples and the sample processing are listed as follows.
Intragastric administration: 0.25, 0.5, 1.0, 2.0, 3.0, 4.0, 6.0, 8.0 and 24 h after administration;
Intravenous administration: 5 min, 0.25, 0.5, 1.0, 2.0, 4.0, 6.0, 8.0 and 24 h after administration. At above time point, 0.3 ml venous blood was taken from retrobulbar venous plexus of the rat and loaded into heparinization tube. After centrifuged at 11000 rpm for 5 min, the plasma was separated and frozen at −20° C. in a refrigerator.

[1] = intravenous injection 10 mg/kg DC291407, average of 3 animals
[2] = intravenous injection 10 mg/kg DC291407, individual animals, 10 mg/kg
[3] = intravenous injection 10 mg/kg DC291407, time 0.083 h, average of 3 animals
[4] = intravenous injection 10 mg/kg DC291407, time 0.083 h, individual animals, 10 mg/kg
[5] = intravenous injection 10 mg/kg DC291407, time 0.25 h, average of 3 animals
[6] = intravenous injection 10 mg/kg DC291407, time 0.25 h, individual animals, 10 mg/kg
[7] = intravenous injection 10 mg/kg DC291407, time 0.50 h, average of 3 animals
[8] = intravenous injection 10 mg/kg DC291407, time 0.50 h, individual animals, 10 mg/kg
[9] = intravenous injection 10 mg/kg DC291407, time 1.0 h, average of 3 animals
[10] = intravenous injection 10 mg/kg DC291407, time 1.0 h, individual animals, 10 mg/kg
[11] = intravenous injection 10 mg/kg DC291407, time 2.0 h, average of 3 animals
[12] = intravenous injection 10 mg/kg DC291407, time 2.0 h, individual animals, 10 mg/kg
[13] = intravenous injection 10 mg/kg DC291407, time 4.0 h, individual animals, BLQ = below lower quantification
[14] = intravenous injection 10 mg/kg DC291407, time 6.0 h, individual animals, BLQ = below lower quantification
[15] = intravenous injection 10 mg/kg DC291407, time 8.0 h, individual animals, BLQ = below lower quantification
[16] = intravenous injection 10 mg/kg DC291407, time 24 h, individual animals, BLQ = below lower quantification

**Q.** With `COC(=O)c1cc2nc(N3CCCC(N)C3)n(Cc3ccccc3C#N)c(=O)c2s1` (stereo not shown) [DC291407] as the molecule, how does the “Tmax of metabolite M1” value [1] read?
**A.** The value was 4.98 min.

**Q.** What about the “Vss of prototype drug” value [1] of the same molecule?
**A.** The value was 210 L/kg.

**Q.** And the “t1/2 of metabolite M1” value [1]?
**A.** The value was 738 min.

**Q.** And the “t1/2 of prototype drug” value [1]?
**A.** Its value is 40.8 min.

**Q.** And the “Tmax of metabolite M1” value (intravenous injection 10 mg/kg DC291407, individual animals)?
**A.** The value was 4.98 min.

**Q.** What about the “AUC0-t of metabolite M1” value [2] of the same molecule?
**A.** The value was 22692 ng·h/mL and 20658 ng·h/mL and 23472 ng·h/mL.

**Q.** What about the “AUC0-t of prototype drug” value [2] of the same molecule?
**A.** The value was 42.4 ng·h/mL and 40.9 ng·h/mL and 24.8 ng·h/mL.

**Q.** And the “AUC0-∞ of metabolite M1” value [2]?
**A.** The value was 23114 ng·h/mL and 20834 ng·h/mL and 23603 ng·h/mL.

**Q.** What about the “AUC0-∞ of prototype drug” value [2] of the same molecule?
**A.** Its value is 45.9 ng·h/mL and 43.9 ng·h/mL and 29.8 ng·h/mL.

**Q.** What about the “CL of prototype drug” value [2] of the same molecule?
**A.** Its value is 218 L/h/kg and 228 L/h/kg and 335 L/h/kg.

**Q.** What about the “Cmax of metabolite M1” value [2] of the same molecule?
**A.** The value was 39818 ng/mL and 41730 ng/mL and 53535 ng/mL.

**Q.** What about the “MRT of metabolite M1” value [2] of the same molecule?
**A.** The value was 96 min and 60.6 min and 47.4 min.

**Q.** And the “MRT of prototype drug” value [2]?
**A.** The value was 40.8 min and 40.2 min and 58.8 min.

**Q.** And the “Vss of prototype drug” value [2]?
**A.** The value was 148 L/kg and 154 L/kg and 328 L/kg.

**Q.** What about the “t1/2 of metabolite M1” value [2] of the same molecule?
**A.** The value was 1150 min and 551 min and 504 min.

**Q.** What about the “t1/2 of prototype drug” value [2] of the same molecule?
**A.** Its value is 30.6 min and 31.8 min and 60.6 min.

**Q.** And the “Plasma concentration of metabolite M1” value [3]?
**A.** Its value is 45028 ng/mL.

**Q.** And the “Plasma concentration of metabolite M2” value [3]?
**A.** Its value is 117 ng/mL.

**Q.** What about the “Plasma concentration of prototype compound” value [3] of the same molecule?
**A.** Its value is 59.2 ng/mL.

**Q.** What about the “Plasma concentration of metabolite M1” value [4] of the same molecule?
**A.** The value was 39818 ng/mL and 41730 ng/mL and 53535 ng/mL.

**Q.** What about the “Plasma concentration of metabolite M2” value [4] of the same molecule?
**A.** Its value is 126 ng/mL and 209 ng/mL and 15.0 ng/mL.

**Q.** What about the “Plasma concentration of prototype compound” value [4] of the same molecule?
**A.** Its value is 63.4 ng/mL and 60.7 ng/mL and 53.4 ng/mL.

**Q.** And the “Plasma concentration of metabolite M1” value [5]?
**A.** Its value is 29232 ng/mL.

**Q.** What about the “Plasma concentration of metabolite M2” value [5] of the same molecule?
**A.** Its value is 339 ng/mL.

**Q.** What about the “Plasma concentration of prototype compound” value [5] of the same molecule?
**A.** The value was 34.8 ng/mL.

**Q.** What about the “Plasma concentration of metabolite M1” value [6] of the same molecule?
**A.** The value was 28858 ng/mL and 29247 ng/mL and 29592 ng/mL.

**Q.** What about the “Plasma concentration of metabolite M2” value [6] of the same molecule?
**A.** The value was 866 ng/mL and 132 ng/mL and 20.3 ng/mL.

**Q.** And the “Plasma concentration of prototype compound” value [6]?
**A.** Its value is 49.7 ng/mL and 34.4 ng/mL and 20.3 ng/mL.

**Q.** What about the “Plasma concentration of metabolite M1” value [7] of the same molecule?
**A.** Its value is 9487 ng/mL.

**Q.** What about the “Plasma concentration of metabolite M2” value [7] of the same molecule?
**A.** Its value is 102 ng/mL.

**Q.** What about the “Plasma concentration of prototype compound” value [7] of the same molecule?
**A.** The value was 23.0 ng/mL.

**Q.** What about the “Plasma concentration of metabolite M1” value [8] of the same molecule?
**A.** The value was 11784 ng/mL and 7251 ng/mL and 9426 ng/mL.

**Q.** And the “Plasma concentration of metabolite M2” value [8]?
**A.** Its value is 144 ng/mL and 153 ng/mL and 9.39 ng/mL.

**Q.** What about the “Plasma concentration of prototype compound” value [8] of the same molecule?
**A.** The value was 27.4 ng/mL and 31.7 ng/mL and 9.72 ng/mL.

**Q.** And the “Plasma concentration of metabolite M1” value [9]?
**A.** Its value is 4717 ng/mL.

**Q.** What about the “Plasma concentration of metabolite M2” value [9] of the same molecule?
**A.** Its value is 23.4 ng/mL.

**Q.** And the “Plasma concentration of prototype compound” value [9]?
**A.** Its value is 9.9 ng/mL.

**Q.** What about the “Plasma concentration of metabolite M1” value [10] of the same molecule?
**A.** The value was 5628 ng/mL and 4634 ng/mL and 3891 ng/mL.

**Q.** What about the “Plasma concentration of metabolite M2” value [10] of the same molecule?
**A.** Its value is 36.0 ng/mL and 30.9 ng/mL and 3.26 ng/mL.

**Q.** What about the “Plasma concentration of prototype compound” value [10] of the same molecule?
**A.** The value was 11.3 ng/mL and 11.9 ng/mL and 6.61 ng/mL.

**Q.** And the “Plasma concentration of metabolite M1” value [11]?
**A.** The value was 310 ng/mL.

**Q.** And the “Plasma concentration of prototype compound” value [11]?
**A.** The value was 4.05 ng/mL.

**Q.** And the “Plasma concentration of metabolite M1” value [12]?
**A.** The value was 401 ng/mL and 214 ng/mL and 314.7 ng/mL.

**Q.** And the “Plasma concentration of prototype compound” value [12]?
**A.** Its value is 4.75 ng/mL and 3.94 ng/mL and 3.44 ng/mL.

**Q.** What about the “Plasma concentration of metabolite M2” value (intravenous injection 10 mg/kg DC291407, time 2.0 h, individual animals, BLQ = below lower quantification, 10 mg/kg) of the same molecule?
**A.** The value was “BLQ (2×) and 7.18 ng/mL”.

**Q.** And the “Plasma concentration of metabolite M1” value (intravenous injection 10 mg/kg DC291407, time 4.0 h, average of 3 animals)?
**A.** Its value is 69.7 ng/mL.

**Q.** And the “Plasma concentration of metabolite M1” value (intravenous injection 10 mg/kg DC291407, time 4.0 h, individual animals, 10 mg/kg)?
**A.** Its value is 55.4 ng/mL and 68.1 ng/mL and 85.5 ng/mL.

**Q.** What about the “Plasma concentration of metabolite M2” value [13] of the same molecule?
**A.** The value was “BLQ”.

**Q.** And the “Plasma concentration of prototype compound” value [13]?
**A.** The value was “BLQ”.

**Q.** What about the “Plasma concentration of metabolite M1” value (intravenous injection 10 mg/kg DC291407, time 6.0 h, average of 3 animals) of the same molecule?
**A.** The value was 40.5 ng/mL.

**Q.** What about the “Plasma concentration of metabolite M1” value (intravenous injection 10 mg/kg DC291407, time 6.0 h, individual animals, 10 mg/kg) of the same molecule?
**A.** Its value is 30.9 ng/mL and 41.4 ng/mL and 49.3 ng/mL.

**Q.** And the “Plasma concentration of metabolite M2” value [14]?
**A.** The value was “BLQ”.

**Q.** And the “Plasma concentration of prototype compound” value [14]?
**A.** Its value is “BLQ”.

**Q.** What about the “Plasma concentration of metabolite M1” value (intravenous injection 10 mg/kg DC291407, time 8.0 h, average of 3 animals) of the same molecule?
**A.** The value was 37.3 ng/mL.

**Q.** And the “Plasma concentration of metabolite M1” value (intravenous injection 10 mg/kg DC291407, time 8.0 h, individual animals, 10 mg/kg)?
**A.** Its value is 24.8 ng/mL and 48.5 ng/mL and 38.5 ng/mL.

**Q.** And the “Plasma concentration of metabolite M2” value [15]?
**A.** Its value is “BLQ”.

**Q.** And the “Plasma concentration of prototype compound” value [15]?
**A.** Its value is “BLQ”.

**Q.** What about the “Plasma concentration of metabolite M1” value (intravenous injection 10 mg/kg DC291407, time 24 h, average of 3 animals) of the same molecule?
**A.** Its value is 13.1 ng/mL.

**Q.** And the “Plasma concentration of metabolite M1” value (intravenous injection 10 mg/kg DC291407, time 24 h, individual animals, 10 mg/kg)?
**A.** The value was 15.2 ng/mL and 13.3 ng/mL and 10.8 ng/mL.

**Q.** And the “Plasma concentration of metabolite M2” value [16]?
**A.** Its value is “BLQ”.

**Q.** What about the “Plasma concentration of prototype compound” value [16] of the same molecule?
**A.** Its value is “BLQ”.
